Our source for the IC50 values is US11066392B2, “Inhibitors of indoleamine 2,3-dioxygenase and methods of their use” (BRISTOL-MYERS SQUIBB COMPANY, priority 2017, dated 2021).

For this assay, the target named is indoleamine 2,3-dioxygenase (IDO) (Homo sapiens, UniProt P14902). The assay can be described thus: HeLa cell-based indoleamine 2,3-dioxygenase (IDO) assay (kynurenine production, IFNγ-stimulated). As to conditions: HeLa cells. The procedure: Assessment of inhibitor activity in HeLa cell-based indoleamine 2,3-dioxygenase (IDO) assay. HeLa (ATCC® CCL-2) cells were obtained from the ATCC® and cultured in Dulbecco's Modified Eagle Medium supplemented with 4.5 g/L glucose, 4.5 […] sodium pyruvate (#10-013-CV, Corning), 2 mM L-alanyl-L-glutamine dipeptide (#35050-061, Gibco), 100U/mL penicillin, 100 μg/mL streptomycin (#SV30010, HyClone) and 10% fetal bovine serum (#SH30071.03 HyClone). Cells were maintained in a humidified incubator at 37° C. in 5% CO2. […] After 24 hours, the media was aspirated and replaced with media containing IFNγ (#285-IF/CF, R&D Systems) at a final concentration of 25 ng/mL. A serial dilution of each test compound was added to the cells in a total volume of 200 μL of culture medium. After a further 48 hour incubation, 170 μL of supernatant was transferred from each well to a fresh 96-well plate. 12.1 μL of 6.1N trichloroacetic acid (#T0699, Sigma-Aldrich) was added to each well and mixed, followed by incubation at 65° C. for 20 minutes to hydrolyze N-formylkynurenine, the product of indoleamine 2,3-dioxygenase, to kynurenine. The reaction mixture was then centrifuged for 10 mins at 500×g to sediment the precipitate. 100 μL of the supernatant was transferred from each well to a fresh 96-well plate. 100 μl of 2% (w/v) p-dimethylaminobenzaldehyde (#15647-7, Sigma-Aldrich) in acetic acid (#A6283, Sigma-Aldrich) was added to each well mixed and incubated at room temperature for 20 mins. Kynurenine concentrations were determined by measuring absorbance at 480 nm and calibrating against an L-kynurenine (#K8625, Sigma-Aldrich) standard curve using a SPECTRAMAX® M2e microplate reader (Molecular Devices). The percentage activity at each inhibitor concentration was determined and IC50 values assessed using nonlinear regression. Activity for compounds described herein is provided in Table 1, wherein potency levels are provided as follows: (Potency: IDO IC50: […])
Chain of indoleamine 2,3-dioxygenase (IDO) (P14902 whole entry): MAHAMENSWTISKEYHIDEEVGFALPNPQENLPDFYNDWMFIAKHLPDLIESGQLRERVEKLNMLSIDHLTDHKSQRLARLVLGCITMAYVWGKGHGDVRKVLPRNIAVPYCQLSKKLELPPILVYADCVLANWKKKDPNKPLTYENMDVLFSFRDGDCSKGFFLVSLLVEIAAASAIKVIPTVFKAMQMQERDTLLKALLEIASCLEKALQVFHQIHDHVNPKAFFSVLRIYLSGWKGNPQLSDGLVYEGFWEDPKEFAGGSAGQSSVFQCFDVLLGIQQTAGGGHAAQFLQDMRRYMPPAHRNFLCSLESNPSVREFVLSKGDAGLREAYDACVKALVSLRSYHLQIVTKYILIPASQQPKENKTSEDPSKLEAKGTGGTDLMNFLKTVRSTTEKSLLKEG

The mark [1] stands for this setting: potency class, read-out: Patent Potency Hela IC50 A < 10 nM, B > 10 nM, C > 100 nM.
[2] abbreviates: IFNγ 25 ng/mL, 48 hour incubation, read-out: IDO Hela IC50.

Read-outs that look alike come from different tables or passages of the source.

Broadly, the IC50 is the concentration at which inhibition is half-maximal.

As to `CCC(NC(=O)c1ccc(=O)[nH]c1)C1CCC(c2ccnc(OC)c2C(F)F)CC1` (single isomer, unassigned) [Example 63-1, N-(1-((1s,4s)-4-(3-(difluoromethyl)-2-methoxypyridin-4-yl)cyclohexyl)propyl)-6-oxo-1,6-dihydropyridine-3-carboxamide], under setting [1], the IC50 was more than 100 nM.

In the case of `CCC(NC(=O)c1ccc(OC)nc1)C1CCC(c2ccnc(OC)c2F)CC1` (stereo not shown) [Example 22, N-(1-(4-(3-Fluoro-2-methoxypyridin-4-yl)cyclohexyl)propyl)-6-methoxynicotinamide], the IC50 under setting [1] is more than 100 nM.

Regarding `CCC(NC(=O)c1ccc(OC)nc1)C1CCC(c2ccnc(OC)c2C)CC1` (single isomer, unassigned) [Example 28a, 6-Methoxy-N-(1-((1s,4s)-4-(2-methoxy-3-methylpyridin-4-yl)cyclohexyl)propyl)nicotinamide], the IC50 under setting [2] amounted to 540 nM.

For the compound `CC[C@@H](NC(=O)c1ccc(OC)nc1)[C@H]1CC[C@@H](c2cnc3ccccc3c2)CC1` (single isomer, unassigned) [Example 20b, 6-Methoxy-N-(1-(4-(quinolin-3-yl)cyclohexyl)propyl)nicotinamide], the IC50 under setting [1] is more than 100 nM.

Consider `CCC(NC(=O)c1ccc(OC)nc1)C1CCC(c2cccc(C(F)(F)F)n2)CC1` (single isomer, unassigned) [Example 47c, 6-methoxy-N-(1-(4-(6-(trifluoromethyl)pyridin-2-yl)cyclohexyl)propyl)nicotinamide], for which the IC50 under setting [1] is more than 100 nM.

As to `CCC(NC(=O)c1ccc(OC)nc1)[C@H]1CC[C@@H](c2ccnc3c(OC)cc(C(F)(F)F)cc32)CC1` (mixture of isomers) [Example 44, (±)-6-methoxy-N-(1-((cis)-4-(8-methoxy-6-(trifluoromethyl)quinolin-4-yl)cyclohexyl)propyl)nicotinamide], under setting [2], the IC50 worked out at 10 nM.

As for `CCOC[C@@H](NC(=O)c1ccc(OC)nc1)[C@H]1CC[C@@H](c2ccnc3ccc(C(F)(F)F)cc32)CC1` (single isomer, unassigned) [Example 13a, N-(2-Ethoxy-1-(4-(6-(trifluoromethyl)quinolin-4-yl)cyclohexyl)ethyl)-6-methoxynicotinamide], the IC50 under setting [2] came out at 80 nM.

With `CCC(NC(=O)c1ccnc(N2CCOCC2)c1)C1CCC(c2ccnc(OC)c2C(F)F)CC1` (single isomer, unassigned) [Example 26b, N-(1-((1s,4s)-4-(3-(Difluoromethyl)-2-methoxypyridin-4-yl)cyclohexyl)propyl)-2-morpholinoisonicotinamide], the IC50 under setting [2] was 10 nM.

As to `CC[C@H](NC(=O)c1ccc(OC)nc1)[C@H]1CC[C@@H](c2cncc(OC)c2)CC1` (single isomer, unassigned) [Example 50d, 6-methoxy-N-(1-(4-(5-methoxypyridin-3-yl)cyclohexyl)propyl)nicotinamide], under setting [2], the IC50 was determined as 220 nM.

On to `CCC(NC(=O)c1ccc(OC)nc1)C1CCC(c2ccnc3c(F)cc(F)cc23)CC1` (single isomer, unassigned) [Example 57d], for which the IC50 under setting [2] worked out at 40 nM.

`CCC(NC(=O)c1ccc(OC)nc1)C1CCC(c2cccc(=O)n2C)CC1` (single isomer, unassigned) [Example 32d, 6-Methoxy-N-(1-(4-(1-methyl-6-oxo-1,6-dihydropyridin-2-yl)cyclohexyl)propyl)nicotinamide]: the IC50 under setting [1] was more than 100 nM.

As to `CC[C@H](NC(=O)c1ccc(OC)nc1)[C@H]1CC[C@@H](c2cncc(OC)c2)CC1` (single isomer, unassigned) [Example 50b, 6-methoxy-N-(1-(4-(5-methoxypyridin-3-yl)cyclohexyl)propyl)nicotinamide], the IC50 under setting [2] is 250 nM.

`CC[C@@H](NC(=O)c1ccc(OC)nc1)[C@H]1CC[C@@H](c2ccnc3ncccc32)CC1` (single isomer, unassigned) [Example 53b, N-(1-(4-(1,8-naphthyridin-4-yl)cyclohexyl)propyl)-6-methoxynicotinamide]: under setting [2], the IC50 turned out to be 680 nM.

As to `CCC(NC(=O)c1ccc(OC)nc1)C1CCC(c2cc[nH]c(=O)c2C(F)F)CC1` (single isomer, unassigned) [Example 64-1, N-(1-((1s,4s)-4-(3-(difluoromethyl)-2-oxo-1,2-dihydropyridin-4-yl)cyclohexyl)propyl)-6-methoxynicotinamide], under setting [1], the IC50 was more than 100 nM.

Turning to `CCC(NC(=O)c1cnc(C)nc1)C1CCC(c2ccnc(OC)c2F)CC1` (stereo not shown) [Example 23, N-(1-(4-(3-Fluoro-2-methoxypyridin-4-yl)cyclohexyl)propyl)-2-methylpyrimidine-5-carboxamide], the IC50 under setting [2] was 110 nM.

As for `CCC(NC(=O)c1ccc(OC)nc1)[C@H]1CC[C@@H](c2nccc(C)n2)CC1` (single isomer, unassigned) [Example 49a, (±)-6-methoxy-N-(1-(4-(4-methylpyrimidin-2-yl)cyclohexyl)propyl)nicotinamide], under setting [2], the IC50 amounted to 70 nM.

`COC[C@H](NC(=O)c1ccc(OC)nc1)[C@H]1CC[C@@H](c2ccnc(OC)c2C(F)F)CC1` (single isomer, unassigned) [Example 51b, N-(1-(4-(3-(difluoromethyl)-2-methoxypyridin-4-yl)cyclohexyl)-2-methoxyethyl)-6-methoxynicotinamide]: under setting [2], the IC50 stood at 390 nM.

Take `CCC(NC(=O)c1ccc(OC)nc1)C1CCC(c2ccnc3ncccc23)CC1` (mixture of isomers) [Example 52, (+/−)-Cis and trans N-(1-(4-(1,8-naphthyridin-4-yl)cyclohexyl)propyl)-6-methoxynicotinamide]: the IC50 under setting [2] came out at 30 nM.

On to `COCC(NC(=O)c1ccc(OC)nc1)C1CCC(c2ccnc3ccc(C(F)(F)F)cc23)CC1` (single isomer, unassigned) [Example 12b, 6-Methoxy-N-(2-methoxy-1-((1s,4s)-4-(6-(trifluoromethyl)quinolin-4-yl)cyclohexyl)ethyl)nicotinamide], for which the IC50 under setting [1] is less than 10 nM.

`COc1ccc(C(=O)N[C@H](CC2(C)COC2)[C@H]2CC[C@@H](c3ccnc4ccc(C(F)(F)F)cc43)CC2)cn1` (single isomer, unassigned) [Example 17a, 6-Methoxy-N-(2-(3-methyloxetan-3-yl)-1-(4-(6-(trifluoromethyl)quinolin-4-yl)cyclohexyl)ethyl)nicotinamide]: under setting [2], the IC50 was found to be 30 nM.

In the case of `[2H]C([2H])([2H])Oc1ccc(C(=O)NC(CC)[C@H]2CC[C@@H](c3ccnc(OC)c3C(F)F)CC2)cn1` (mixture of isomers) [Example 65, (±)-N-(1-((1s,4s)-4-(3-(difluoromethyl)-2-methoxypyridin-4-yl)cyclohexyl)propyl)-6-(methoxy-d3)nicotinamide], the IC50 under setting [1] is less than 10 nM.

Consider `CCC(NC(=O)c1cnc(OC)nc1)C1CCC(c2ccnc3c(F)cc(F)cc23)CC1` (single isomer, unassigned) [Example 58a], for which the IC50 under setting [2] is 310 nM.

For `CCC(NC(=O)c1ccc(OC)nc1)C1CCC(c2cccc(OC(F)F)n2)CC1` (single isomer, unassigned) [Example 48b, N-(1-(4-(6-(difluoromethoxy)pyridin-2-yl)cyclohexyl)propyl)-6-methoxynicotinamide], the IC50 under setting [1] is more than 100 nM.

`CCC(NC(=O)c1cnc(OC)nc1)C1CCC(c2ccnc3c(F)cc(F)cc23)CC1` (single isomer, unassigned) [Example 58c]: the IC50 under setting [2] amounted to 360 nM.

Turning to `[2H]C([2H])([2H])Oc1ccc(C(=O)NC(CC)C2CCC(c3ccnc(OC)c3C(F)F)CC2)cn1` (single isomer, unassigned) [Example 66-1, N-(1-((1s,4s)-4-(3-(difluoromethyl)-2-methoxypyridin-4-yl)cyclohexyl)propyl)-6-(methoxy-d3)nicotinamide], the IC50 under setting [1] is more than 100 nM.

Take `CCC(NC(=O)c1ccnc(N2CCOCC2)c1)C1CCC(c2ccnc(OC)c2C(F)F)CC1` (single isomer, unassigned) [Example 26a, N-(1-((1s,4s)-4-(3-(Difluoromethyl)-2-methoxypyridin-4-yl)cyclohexyl)propyl)-2-morpholinoisonicotinamide]: the IC50 under setting [1] was more than 100 nM.

`[2H]C([2H])([2H])Oc1ccc(C(=O)NC(CC)C2CCC(c3ccnc(OC)c3C(F)F)CC2)cn1` (single isomer, unassigned) [Example 66-2, N-(1-((1s,4s)-4-(3-(difluoromethyl)-2-methoxypyridin-4-yl)cyclohexyl)propyl)-6-(methoxy-d3)nicotinamide]: the IC50 under setting [1] was less than 10 nM.

As to `CCC(NC(=O)c1ccc(OC)nc1)C1CCC(c2ccnc3ccc(C(F)(F)F)cc23)CC1` (single isomer, unassigned) [Example 11b, 6-Methoxy-N-(1-((1s,4s)-4-(6-(trifluoromethyl)quinolin-4-yl)cyclohexyl)propyl)nicotinamide], the IC50 under setting [1] is less than 10 nM.
